Columns and labels:
[1] = product literature; cited from earlier work
[2] = Stability trials of free and encapsulated Creatine in water (HPLC)
[3] = Electrophoretic mobility (zeta potential); format: physicochemical

In the case of `CN(CC(=O)O)C(=N)N.O` [CREAPURE, Creatine Monohydrate], the “long term stability in water” value [1] is listed as “no long term stability”.

For `CN(CC(=O)O)C(=N)N.O` [commercial Creatine monohydrate, Creatine monohydrate], the “Creatine concentration reduced by” value ([2]; 15 min incubation in water at room temperature) was 66%, the “first-order degradation rate constant” value ([2]; in water at 25° C.) was 0.0263 per day and the zeta potential [3] was −2.4 mV.
